# Measured values as given in patent US20150105252A1, “SUBSTITUTED PYRAZOLES AS HERBICIDES” (E I DU PONT DE NEMOURS AND COMPANY, priority 2013, published 2015).
# Columns and labels:
# [1] = test system: kochia; assay: Test E preemergence; type: in vivo, Kochia scoparia; conditions: 21 days, scale 0 to 100
# Source text: (§1) Seeds of plant species selected from bermudagrass (Cynodon dactylon), Surinam grass (Brachiaria decumbens), crabgrass, large (large crabgrass, Digitaria sanguinalis), crabgrass, naked (naked crabgrass, Digitaria nuda), foxtail, green (green foxtail, Setaria viridis), johnsongrass (Sorghum halepense), kochia (Kochia scoparia), morningglory (pitted morningglory, Ipomoea lacunosa), nutsedge, purple (purple nutsedge, Cyperus rotundus), ragweed (common ragweed, Ambrosia elation), mustard, black (black mustard, Brassica nigra), guineagrass (Panicum maximum), dallisgrass (Paspalum dilatatum), barnyardgrass (Echinochloa crus-galli), sandbur (southern sandbur, Cenchrus echinatus), sowthistle (common sowthistle, Sonchus oleraceous), ryegrass, Italian (Italian ryegrass, Lolium multiflorum), signalgrass (broadleaf signalgrass, Brachiaria platyphylla), dayflower, VA (Virginia (VA) dayflower, Commelina virginica), bluegrass (annual bluegrass, Poa annua), quackgrass (Elytrigia repens), mallow (common mallow, Malva sylvestris), buckwheat, wild (wild buckwheat, Polygonum convolvulus), leafy spurge (Euphorbia esula), common chickweed (Stellaria media), wild poinsettia (Euphorbia heterophylla), pigweed, palmer (palmer pigweed, Amaranthus palmeri), and pigweed (redroot pigweed, Amaranthus retroflexus) were planted into a blend of loam soil and sand and treated preemergence with test chemicals formulated in a non-phytotoxic solvent mixture which included a surfactant.
# (§2) Treated plants and controls were maintained in a greenhouse for 21 days, after which time all species were compared to controls and visually evaluated. Plant response ratings, summarized in Table E, are based on a scale of 0 to 100 where 0 is no effect and 100 is complete control. A dash (-) response means no test result.
# [2] = test system: nutsedge, purple; assay: Test E preemergence; type: in vivo, Cyperus rotundus; conditions: 21 days, scale 0 to 100
# Source text: as §1, §2
# [3] = test system: leafy spurge; assay: Test E preemergence; type: in vivo, Euphorbia esula; conditions: 21 days, scale 0 to 100
# Source text: as §1, §2
# [4] = test system: kochia; assay: Test F postemergence; type: in vivo, Kochia scoparia; conditions: scale 0 to 100
# Source text: (§3) Seeds of plant species selected from corn (Zea mays), soybean (Glycine max), velvetleaf (Abutilon theophrasti), lambsquarters (Chenopodium album), wild poinsettia (Euphorbia heterophylla), pigweed, palmer (palmer pigweed, Amaranthus palmeri), common waterhemp (Amaranthus rudis), surinam grass (Brachiaria decumbens), large crabgrass (Digitaria sanguinalis), crabgrass, Brazil (Brazilian crabgrass, Digitaria horizontalis), fall panicum (Panicum dichotomiflorum), giant foxtail (Setaria faberii), green foxtail (Setaria viridis), goosegrass (Eleusine indica), johnsongrass (Sorghum halepense), common ragweed (Ambrosia elation), barnyardgrass (Echinochloa crus-galli), southern sandbur (Cenchrus echinatus), arrowleaf sida (Sida rhombifolia), Italian ryegrass (Lolium multiflorum), dayflower, VA (Virginia (VA) dayflower, Commelina virginica), field bindweed (Convolvulus arvensis), cocklebur (common cocklebur, Xanthium strumarium), morningglory (Ipomoea coccinea), nightshade (eastern black nightshade, Solanum ptycanthum), kochia (Kochia scoparia), yellow nutsedge (Cyperus esculentus), and hairy beggarticks (Bidens pilosa), were planted into a silt loam soil and treated preemergence with test chemicals formulated in a non-phytotoxic solvent mixture which included a surfactant.
# (§4) At the same time, plants from these crop and weed species and also horseweed (Canada horseweed, Conyza canadensis), smartweed (ladysthumb smartweed, Polygonum persicaria), waterhemp_RES1, (ALS & Triazine resistant common waterhemp, Amaranthus rudis), and waterhemp_RES2, (ALS & HPPD resistant common waterhemp, Amaranthus rudis) were treated with postemergence applications of test chemicals formulated in the same manner. Plants ranged in height from 2 to 18 cm for postemergence treatments (1- to 4-leaf stage). Treated plants and controls were maintained in a greenhouse for 14 to 21 days, after which time all species were compared to controls and visually evaluated. Plant response ratings, summarized in Table F, are based on a scale of 0 to 100 where 0 is no effect and 100 is complete control. A dash (-) response means no test result.
# [5] = test system: hairy beggarticks; assay: Test F postemergence; type: in vivo, Bidens pilosa; conditions: scale 0 to 100
# Procedure, shortened: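 Percent-control style visual scores, from 0 (no effect) to 100 (complete control), were given relative to controls. Treatment timing: preemergence on silt loam plantings, or postemergence at 1- to 4-leaf stage. Evaluation came 14 to 21 days after spraying, greenhouse conditions.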
# [6] = test system: waterhemp_RES2 (ALS & HPPD resistant common waterhemp); assay: Test F postemergence; type: in vivo, Amaranthus rudis; conditions: scale 0 to 100
# Source text: as §3, §4
# [7] = test system: kochia; assay: Test A preemergence; type: in vivo, Kochia scoparia
# Procedure, shortened: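 After sowing in a sand–loam mix, pots received compound preemergence by directed soil spray, or postemergence once plants reached the one- to two-leaf stage (2–10 cm). Formulation contained surfactant in a non-phytotoxic solvent. Injury was scored visually after ~10 greenhouse days, 0–100 scale.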
# [8] = 125 g ai/ha, visual injury, 0 to 100 scale, approx. 10 days
# [9] = 500 g ai/ha, visual injury after approx. 10 days, 0 to 100 scale (0 no effect, 100 complete control)
compound,measurement,setting,value
CCCc1cc(C(=O)NCC(F)(F)F)nn1Cc1ccnc(C(F)(F)F)c1 [Compound 105],"Plant response rating, Kochia",[1]; 16 g ai/ha,100
same,"Plant response rating, Kochia",[1]; 31 g ai/ha,100
same,"Plant response rating, Kochia",[1]; 62 g ai/ha,100
same,"Plant response rating, Kochia",[1]; 125 g ai/ha,100
same,"Plant response rating, Kochia",[1]; 250 g ai/ha,100
same,"Plant response rating, Nutsedge, Purple",[2]; 16 g ai/ha,40
same,"Plant response rating, Nutsedge, Purple",[2]; 31 g ai/ha,70
same,"Plant response rating, Nutsedge, Purple",[2]; 62 g ai/ha,85
same,"Plant response rating, Nutsedge, Purple",[2]; 125 g ai/ha,85
same,"Plant response rating, Nutsedge, Purple",[2]; 250 g ai/ha,95
same,"Plant response rating, Leafy Spurge",[3]; 16 g ai/ha,100
same,"Plant response rating, Leafy Spurge",[3]; 31 g ai/ha,100
same,"Plant response rating, Leafy Spurge",[3]; 62 g ai/ha,100
same,"Plant response rating, Leafy Spurge",[3]; 125 g ai/ha,100
same,"Plant response rating, Leafy Spurge",[3]; 250 g ai/ha,100
same,"Plant response rating, Kochia","[4]; Postemergence, 31 g ai/ha",60
same,"Plant response rating, Kochia","[4]; Postemergence, 125 g ai/ha",90
same,"Plant response rating, Kochia","[4]; Postemergence, 250 g ai/ha",95
same,"Plant response rating, Kochia","[4]; postemergence, 62 g ai/ha",90
same,"Plant response rating, Kochia","[4]; postemergence, 500 g ai/ha",95
same,"Plant response rating, Hairy Beggarticks","[5]; Postemergence, 31 g ai/ha",40
same,"Plant response rating, Hairy Beggarticks","[5]; Postemergence, 125 g ai/ha",50
same,"Plant response rating, Hairy Beggarticks","[5]; Postemergence, 250 g ai/ha",70
same,"Plant response rating, Hairy Beggarticks","[5]; postemergence, 62 g ai/ha",50
same,"Plant response rating, Hairy Beggarticks","[5]; postemergence, 500 g ai/ha",85
same,"Plant response rating, Waterhemp_RES2","[6]; Postemergence, 31 g ai/ha",60
same,"Plant response rating, Waterhemp_RES2","[6]; Postemergence, 125 g ai/ha",75
same,"Plant response rating, Waterhemp_RES2","[6]; Postemergence, 250 g ai/ha",85
same,"Plant response rating, Waterhemp_RES2","[6]; postemergence, 62 g ai/ha",70
same,"Plant response rating, Waterhemp_RES2","[6]; postemergence, 500 g ai/ha",95
CCONC(=O)c1cc(CC)n(Cc2cc(C(F)(F)F)no2)n1 [Compound 125],Kochia plant response rating,[7]; [8],40
same,Kochia plant response rating,[7]; [9],100
CCOc1cc(C(=O)NC2CC2)nn1Cc1ccnc(OC(F)F)c1 [Compound 133],Kochia plant response rating,[7]; [8],100
same,Kochia plant response rating,[7]; [9],100
CCc1cc(C(=O)NCC(F)(F)F)nn1Cc1cc(OC(F)F)nn1C [Compound 206],Kochia plant response rating (0 to 100 scale),"[7]; 125 g ai/ha, visual injury approx. 10 days after treatment",50
